US20150174207A1, “METHODS FOR TREATING CANCER WITH GHRH AGONISTS” (UNIVERSITY OF MIAMI, priority 2013, published 2015)
Entries after “also recorded” stand apart in the source; their conditions may differ. Marks after values point to notes of the source that are not given here. [ ]: non-standard residue; d: D form. The star is where a group is joined. Desaminotyrosyl = O=C(CCc1ccc(O)cc1)*; Agmatine = N=C(N)NCCCCN*; Nle = CCCC[C@H](N)C(=O)O; Orn = NCCC[C@H](N)C(=O)O; Abu = CC[C@H](N)C(=O)O

Assays:
[1] = test system: U-87 MG xenografts; assay: Western blot of necropsied in vivo tumor samples; design: species or system nude mice; conditions: xenograft samples after 6 wk treatment
Description: (§1) Six-wk-old nude mice (Ncr nu/nu) were obtained from the National Cancer Institute (Bethesda, Md.). The animals were housed in sterile cages in a temperature-controlled room with a 12-h light/12-h dark schedule and were fed with autoclaved chow and water, ad libitum. The Institutional Animal Care and Use Committee, VA Medical Center Miami, Fla. fully approved the animal protocols. For the therapy study, 10^6 cells per mouse of the human glioblastoma cell line, U-87 MG (American Type Culture Collection, ATCC), were injected into the flanks of four nude mice (Ncr nu/nu) under isoflurane anesthesia (Baxter). A month later, the resulting tumors were harvested and minced into ˜3 mm^3 pieces and transplanted into flanks of nude mice, under anesthesia, using a minitrocar. When the tumors reached ˜32 mm^3, the mice were randomized into four groups. The animals received the following treatments for 6 wk: (Group 1) control, 16 tumors, vehicle solution; (group 2) agonist JI-34, 1 μg/20 g, s.c., daily, 19 tumors; (group 3) DOX, 260 nmol/20 g, i.v., weekly on Thursdays, 19 tumors; and (group 4) JI-34 (1 μg/20 g daily)+DOX (260 nmol/20 g), 16 tumors. Tumor volume was measured with microcalipers once a week and calculated using the formula: (length×width×height×in)/6. Tumor doubling time was calculated using the formula: [study duration×logarithm (LOG) 2]/(LOG final tumor volume−LOG initial tumor volume). At the end of the experiment, the mice were killed under pentobarbital anesthesia, tumors were excised and weighed; necropsy was performed. Samples free of necrotic debris were immediately snap frozen in liquid nitrogen and stored at −80° C. for further analyses.
Protein from the tumor tissue was isolated using the NucleoSpin kit (Macherey-Nagel). Protein concentrations were determined by NanoDrop (NanoDrop Technologies). Equal amounts of protein were resuspended in sample loading buffer (0.25 M Trizma Base, 8% SDS, 40% glycerol, 0.004% bromophenol blue, 4% P3-mercaptoethanol; pH 6.8), boiled for 3 min and separated by 12% SDS-polyacrylamide gel electrophoresis. Proteins from the gel were then transferred onto nitrocellulose membranes, which were blocked with 50-50% Tris-buffered saline (20 mM Tris.HCl pH 7.5, 150 mM NaCl) and Odyssey blocking buffer for 1 h at room temperature, followed by an overnight incubation at 4° C. with the following primary antibodies: growth hormone-releasing hormone receptor (GHRH-R), (ab28692) nestin (ab92391), glial fibrillary acid protein (GFAP) (ab48050) (all from AbCam), β-actin (A5441; Sigma-Aldrich), or p53 (9282; Cell Signaling Technology). […] The protein bands were quantified using […] (LI-COR Biosciences); integrated density values of triplicate experiments were plotted.

[2] = test system: U-87 MG cells; assay: Cell counting after repeated exposure for 3 wk (Coulter Counter); format: cell-based, human; conditions: repeated exposure 3 wk, 1 μM JI-34 daily, DOX weekly at 100 nM; vs. control
Description: (§2) U-87 MG cells were cultured in Eagle's minimum essential medium (ATCC) medium [supplemented with 10% FBS (ATCC) and 0.1% penicillin/streptomycin] at 37° C. and 5% CO2 atmosphere. For cell count and cell size determination, […] were seeded into T-25 flasks. The medium was changed two to three times a week. The following treatment in vitro groups were set up: (Group 1) control, vehicle solution; (group 2) JI-34 at 1 μM final concentration, daily; (group 3) DOX at 100 nM final concentration, weekly on Thursdays; and (group 4) JI-34, 1 μM and DOX, 100 nM. After 3 wk, cell count and cell size were determined by Z Series Coulter Counter (Beckman Coulter).

[3] = test system: U-87 MG cells; assay: Multidrug resistance (MDR) assay, calcein retention; format: cell-based, human; conditions: JI-34 1 μM pretreatment 24 h, DOX 100 nM, cyclosporin-A 1/1,000 dilution; 1 h; vs. control
Description: The multidrug resistance assays were performed according to the manufacturer's instructions (Cayman Chemical). U-87 MG cells were seeded, 5×10^4 cells per well density in 100 μL medium in 96-well, black, clear-bottom plates and grown overnight in a humidified incubator at 37° C. […] Afterward, the cells were incubated for 1 h, then calcein AM/Hoechst dye combined staining solution was added. Fifteen minutes later, both cell density (at excitation and emission wavelengths of 355 nm and 465 nm, respectively) and calcein retention (at excitation and emission wavelengths of 485 nm and 535 nm, respectively) were detected with the help of a Victor3 multilabel counter. Relative calcein retention values were expressed as a function of cell density.

[4] = test system: U-87 MG cells; assay: ApoLive-Glo Multiplex assay (viability and apoptosis); format: cell-based, human; conditions: JI-34 1 μM, DOX 100 nM, after 24 h of treatment
Description: Determinations of viability and apoptosis were performed from freshly seeded cell samples (10^4 cells per well, in 100 μL media, in a 96-well plate) with the help of ApoLive-Glo Multiplex Assay (Promega), according to the manufacturer's instructions. First the cells received full medium containing the following treatments: Groups 1 (control) and 3, vehicle solution; groups 2 and 4, JI-34 (1 μM final concentration). After 24 h, the cells received the following treatments: group 1, (vehicle solution); group 2, JI-34; group 3, DOX (100 nM final concentration); and group 4, JI-34+DOX. After another 24 h of incubation, viability reagent was added to the wells and fluorescence was measured by Victor3 multilabel counter. Then Caspase-Glo 3/7 apoptosis reagent was added and luminescence was determined.

[5] = test system: U-87 MG cells; assay: MTT proliferation assay in vitro; format: cell-based, human; conditions: JI-34 1 μM, DOX 100 nM; combination: 24 h JI-34 pretreatment, then DOX+JI-34 48 h
Description: For proliferation studies, 104 cells per well were seeded in 100 μL media, in a 96-well plate, and incubated for 24 h in a humidified incubator at 37° C. Then, culture medium was replaced with FBSfree medium (starvation) for 24 h. After 24 h, the cells received full medium containing the following treatments: Groups 1 (control) and 3, vehicle solution; groups 2 and 4, JI-34 (1 μM final concentration). After another 24 h, the cells received the following treatments: group 1, vehicle solution; group 2, JI-34; group 3, DOX (100 nM final concentration); and group 4, JI-34+DOX. Then, they were incubated for 48 h and the effect on cell proliferation was evaluated by using the MTT assay (CellTiter 96 Non-Radioactive Cell Proliferation Assay; Promega), according to the manufacturer's instructions with the help of a Victor3 multilabel counter (Perkin-Elmer).

[6] = test system: U-87 MG, human GBM tumors; assay: Growth of U-87 MG glioblastoma xenografts in nude mice; format: in vivo; conditions: U-87 MG xenografts in nude mice, 6 wk; JI-34 50 μg/kg/d s.c., DOX 13 μmol/kg/wk i.v.; vs. control
Description: as §1, with “The animals received the following treatments for 6 wk: (Group 1) control, 16 tumors, vehicle solution; (group 2) agonist JI-34, 1 μg/20 g, s.c., daily, 19 tumors; (group 3) DOX, 260 nmol/20 g, i.v., weekly on Thursdays, 19 tumors; and (group 4) JI-34 (1 μg/20 g daily)+DOX (260 nmol/20 g), 16 tumors.” left out, “At the end of the experiment, the mice were killed under pentobarbital anesthesia, tumors were excised and weighed; necropsy was performed. Samples free of necrotic debris were immediately snap frozen in liquid nitrogen and stored at −80° C. for further analyses.” left out

[7] = test system: U-87 cell-derived tumors; assay: Human Cancer PathwayFinder quantitative PCR array of dissected tumor samples; format: in vivo, nude mice; conditions: tumors after 6 wk treatment; fold change (ΔΔCt) vs. control
Description: as §1, with “The animals received the following treatments for 6 wk: (Group 1) control, 16 tumors, vehicle solution; (group 2) agonist JI-34, 1 μg/20 g, s.c., daily, 19 tumors; (group 3) DOX, 260 nmol/20 g, i.v., weekly on Thursdays, 19 tumors; and (group 4) JI-34 (1 μg/20 g daily)+DOX (260 nmol/20 g), 16 tumors.” left out, “At the end of the experiment, the mice were killed under pentobarbital anesthesia, tumors were excised and weighed; necropsy was performed. Samples free of necrotic debris were immediately snap frozen in liquid nitrogen and stored at −80° C. for further analyses.” left out
Total RNA was isolated from representative, DNase treated, U-87 MG dissected tumor samples using a NucleoSpin kit according to the manufacturer's instructions (Macherey-Nagel). Four tumor samples from each group were analyzed. The yield and the quality of RNA samples were determined spectrophotometrically using 260 nm, and 260/280- and 260/230-nm ratio. […]
The Human Cancer PathwayFinder quantitative PCR array (PAHS-033A; Qiagen) used in our study contains 84 unique genes related to cell proliferation, apoptosis, cell cycle, angiogenesis, invasion, and metastasis. […] Fold changes in gene expression were calculated using the ΔΔCt method and five stably expressed housekeeping genes (B2M, HPRT1, RPL13A, GAPDH, and ACTB) were used for normalization of the results.

[8] = test system: U-87 MG cells; assay: Cell volume determination (intracellular water space, 3-OMG); format: cell-based, human; conditions: repeated exposure 3 wk, 1 μM JI-34 daily, DOX weekly at 100 nM; vs. control
Description: as §2
Cell volume was estimated by measuring the intracellular water space as follows. Briefly, 1 mM 3-O-methylglucose (3-OMG) and 0.5 μCi/mL [3H]-3-OMG were added to the culture 6 h before the volume assay. At the end of the incubation period, culture medium was aspirated, and an aliquot was saved for radioactivity determination. […] Radioactivity in the cell extracts and media was determined, and an aliquot of the cell extract was used for protein estimation with the Bio-Rad bicinchoninic acid kit. Values were normalized to protein level, and cell volume was expressed as microliters/milligram protein.

[9] = test system: U-87 MG cells; assay: Immunocytochemistry / differentiation in reduced serum-containing medium; format: cell-based, human; conditions: JI-34 1 μM, 0.1% FBS-containing medium, 2 d; vs. DMSO control
Description: Cells were seeded onto coverslips in six-well plates (50,000 cells per well) in 10% FBS-containing growth medium. This medium was replaced with serum-free medium the following day for 24 h. Thereafter, GHRH agonist (JI-34, 1 μM) was added in medium supplemented with 0.1% FBS and remained for the consecutive 2 d. Control cells received vehicle (DMSO). At the end of the treatment, phase-contrast images of live cells were collected and cells were fixed in ice-cold acetone for 10 min, washed with PBS three times, and blocked with 2% goat serum in PBS for 30 min. GFAP (Abcam; 1:500 dilution) or nestin (BD Transduction Laboratories; 1:75 dilution) antibodies were added in PBS for 1 h. Anti-rabbit and anti-mouse secondary antibodies (Alexa Fluor 488; Jackson Immunoresearch) were also applied for 1 h. Coverslips were mounted in Vectashield mounting medium containing DAPI for nuclear staining (Vector Laboratories). Images were acquired on a Nikon Eclipse Ti fluorescence microscope (Nikon Instruments).

[10] = test system: U-87 MG cells; assay: ELISA of p53, FGF basic and TGFβ; format: cell-based, human; conditions: cell culture supernatant, 1 μM JI-34; vs. control
Description: Glioblastoma cells (10^5 cells per well) were seeded onto six-well plates, cultured overnight, and then exposed to compounds used in the 3-(4,5-dimethylthiazol-2-yl)-2,5-diphenyltetrazolium bromide proliferation assays: Groups 1 (control) and 3, vehicle solution; groups 2 and 4, GHRH agonists JI-34 (1 μM final concentration). After another 24 h, the cells received the following treatments: Group 1, vehicle solution; group 2, JI-34; group 3, doxorubicin (DOX) (100 nM final concentration); and group 4, JI-34+DOX. Concentrations of the specific proteins in the medium (in the case of FGF basic or TGFβ-1) or in samples of scraped and homogenized cells (in the case of p53) were determined after 24 h using ELISA kits according to the manufacturer's instructions. Human TGFβ and FGF basic ELISA kits were obtained from AbCam, whereas p53 was measured with a PathScan Sandwich ELISA kit (Cell Signaling Technology). Readings were normalized to protein concentrations as determined by NanoDrop (NanoDrop Technologies).

Compound	expression of GFAP [1]	expression of the neuroectodermal stem-cell marker nestin [1]	decrease in the number of cells [2]	increase in calcein retention [3] [%]	increase in apoptosis [4]	inhibitory effect on proliferation (MTT) [5]	inhibition of tumor growth [6] [%]	Relative expression of B-cell lymphoma 2 (Bcl-2) [7]	Relative expression of Integrin α3 (CD49C) [7]	Relative expression of S100 calcium binding protein A4 (S100-A4) [7]	decrease in the volume of the cells (intracellular water content) [8] [%]	GFAP labeling (immunofluorescence) [9]	nestin level (immunofluorescence) [9]	increase in GFAP expression (integrated density values) ([1]; compared with the control) [%]	decrease in level of TGFβ [10] [%]	decrease in level of bFGF [10] [%]
COc1cccc2c1C(=O)c1c(O)c3c(c(O)c1C2=O)C[C@@](O)(C(=O)CO)C[C@@H]3O[C@H]1C[C@H](N)[C@H](O)[C@H](C)O1 [DOX, doxorubicin]	decrease	increased	52%	7	182%	no significant effect	35	−1.8*	−1.65*	−2.34*	20	–	–	–	–	–
[Dat^1, Orn^12, Abu^15, Orn^21, Nle^27, Asp^28, Agm^29]hGHRH(1-29)NH2 ([Desaminotyrosyl]ADAIFTNSYR[Orn]VL[Abu]QLSAR[Orn]LLQDI[Nle]D[Agmatine]-NH2) [JI-34]	–	decreased	no significant effect	–	no effect	no significant effect	–	–	–	–	–	high levels of GFAP were detected; also recorded: elevation in the intensity of GFAP-labeling	did not change notably; also recorded: did not show a significant change	70	24	37
